Paper PMC7933434, “Entropy-driven binding of gut bacterial β-glucuronidase inhibitors ameliorates irinotecan-induced toxicity” (Communications Biology, 2021)
“Also recorded” adds a separate entry of the source.

How the values were obtained:
BdGUS = BdGUS (Bifidobacterium dentium, UniProt D2Q7B1); assay: biochemical; format: binding; settings: for ΔH / Kd / ΔG / —TΔS: BdGUS, Tris buffer (250 mM NaCl, 20 mM Tris, pH 8.0), 298 K
[1] = biological target: T1, GUS activity in live E. coli cells (Escherichia coli, UniProt P05804); assay: GUS activity in live E. coli cells; format: cell-based; settings: E. coli cells (OD600 = 1.89) treated for 30 min, then GUS activity measured
T1 construct: endogenous in cells
T1 sequence (P05804 whole entry): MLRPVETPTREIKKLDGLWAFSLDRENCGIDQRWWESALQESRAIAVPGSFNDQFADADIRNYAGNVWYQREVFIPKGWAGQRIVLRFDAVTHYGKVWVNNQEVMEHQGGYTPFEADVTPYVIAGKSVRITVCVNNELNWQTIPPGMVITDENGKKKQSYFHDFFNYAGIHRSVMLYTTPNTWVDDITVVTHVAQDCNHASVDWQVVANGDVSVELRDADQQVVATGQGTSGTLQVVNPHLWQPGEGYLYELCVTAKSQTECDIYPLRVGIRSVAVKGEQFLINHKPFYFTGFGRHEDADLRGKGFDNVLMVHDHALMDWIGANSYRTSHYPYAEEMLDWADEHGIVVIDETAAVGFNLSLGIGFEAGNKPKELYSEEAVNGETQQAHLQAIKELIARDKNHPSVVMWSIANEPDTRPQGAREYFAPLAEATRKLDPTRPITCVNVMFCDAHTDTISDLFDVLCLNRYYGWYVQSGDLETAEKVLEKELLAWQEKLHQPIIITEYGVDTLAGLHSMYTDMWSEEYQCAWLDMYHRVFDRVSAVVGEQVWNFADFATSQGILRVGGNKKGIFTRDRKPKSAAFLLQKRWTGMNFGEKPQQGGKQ
Method: To examine if inhibitors 2–4 could inhibit GUS activity in vivo, E. coli cells (OD600 = 1.89) were treated with each of 2–4 for 30 min, after which GUS activity was measured. […]; 3, 18.6 nM; and 4, 3.69 nM (Supplementary Fig. 9a). […]. […] Additionally, to evaluate cell viability, E. coli cultures were treated with ampicillin (positive control), DMSO, or inhibitors 2–4 (100 μM) for 6 h.
Supplementary Figure 9 Inhibitors 2–4 sho w in hi biti on ag ai n st G US acti vity in l i ve E. co li cell s. (a) GUS activity was measured in live E. coli. Af t e r E. coli were incubated with DMSO or an inhibitor ( 2–4), GUS activity was measured using 4-methylumbelliferyl-β-glucuronide as the substrate. The release of fluorescent 4-methylumbelliferone was detected at 445 nm (excitation, 345 nm). Compared with the negative c ont rol (DMSO ), […]
[…]. (b) Colony formation assay. None of the inhibitors affected bacterial growth. As a negative control, E. coli cells were incubated with ampicillin (100 μg/mL). Results are expressed as the mean of triplicate samples ± SEM.
(1 picture or pasted object on this page, not shown here)

[2] = tested on: H184B5F5/M10 non-cancerous human mammary epithelial cells; assay: In vitro cytotoxicity, [3H]thymidine incorporation, H184B5F5/M10; format: cell-based; settings: 0.001–100 μM for 24 h
[3] = tested on: GM637 non-cancerous human fibroblasts; assay: In vitro cytotoxicity, [3H]thymidine incorporation, GM637; format: cell-based; settings: GM637 cells; 0.001–100 μM for 24 h
BALB/c mice [4] = assay: Colon histology (hematoxylin and eosin) after oral gavage; format: in vivo, mouse; settings: female BALB/c mice; oral gavage for 5 days; 3 at 37.5 mg per kg body weight, ASN03273363 at 65 mg
[5] = tested on: intestinal bacterial GUSs; assay: In vivo imaging of GUS activity (FDGiCu probe); parameters: species or system mouse; settings: BALB/c mice; oral gavage of inhibitor, then 500 µg FDGiCu intravenously
Method: . […] The mice were then sacrificed and the intestines removed. […] In addition, we performed real-time in vivo gastrointestinal inhibition of bacterial GUSs using whole-body in vivo imaging (Fig. 4a and Supplementary Figs. 11, 12). The mice were gavaged in the same manner as described above. Following the final gavage, 500 µg of FDGiCu (fluorescein-di-β-D-glucuronide as a non-fluorescent probe) was injected intravenously. Upon digestion by intestinal bacterial GUSs, FDGiCu is hydrolyzed to produce fluorescein (as the hydrolyzed product) that can be detected as fluorescence in the intestinal region. […]. Mice were treated for 10 days. […]
Mice were given 3 via oral gavage. […] The hydrolysis product (fluorescein) generated in the gut was quantified over a 2 h period by in vivo imaging (excitation 465 nm, emission 520 nm). The maximum fluorescein fluorescence was observed 60 min after injection of vehicle control. At 2 h post injection, most of the FDGiCu has been excreted and thus fluorescence is reduced. The region of interest (ROI) was analyzed with Living Image Software. b Effect of inhibitor 3 to protect against diarrhea caused by CPT-11. Diarrhea severity was scored as described in methods. […] The intensity of hydrolyzed fluorescein was assessed by in vivo imaging system (Caliper Life Sciences) and quantified as GUS activity. […]

BALB/c mice [6] = assay: In vivo diarrhea test (CPT-11); parameters: species or system mouse; settings: BALB/c mice, 10 days
[7] = parameters: method as in PMID 18537837; settings: endocyclic amine; cited from earlier work

Sequence of BdGUS (D2Q7B1 entry or part of it): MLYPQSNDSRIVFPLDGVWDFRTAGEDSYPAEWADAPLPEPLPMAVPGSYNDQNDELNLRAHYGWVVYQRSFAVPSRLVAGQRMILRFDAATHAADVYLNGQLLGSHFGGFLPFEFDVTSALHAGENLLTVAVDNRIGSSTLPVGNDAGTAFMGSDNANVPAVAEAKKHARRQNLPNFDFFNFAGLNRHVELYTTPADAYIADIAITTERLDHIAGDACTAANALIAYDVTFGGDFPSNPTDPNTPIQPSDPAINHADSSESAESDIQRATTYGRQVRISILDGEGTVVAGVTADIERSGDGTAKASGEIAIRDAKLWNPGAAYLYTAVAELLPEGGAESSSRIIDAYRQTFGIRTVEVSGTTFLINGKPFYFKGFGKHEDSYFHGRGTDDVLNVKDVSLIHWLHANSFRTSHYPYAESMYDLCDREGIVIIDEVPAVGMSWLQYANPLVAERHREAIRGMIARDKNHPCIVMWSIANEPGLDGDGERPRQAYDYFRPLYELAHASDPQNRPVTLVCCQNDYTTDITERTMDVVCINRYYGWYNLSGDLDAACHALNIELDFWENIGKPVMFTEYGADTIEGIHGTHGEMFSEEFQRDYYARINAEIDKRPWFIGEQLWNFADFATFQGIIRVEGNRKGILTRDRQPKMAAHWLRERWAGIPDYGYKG

What does the source list for `CCCCCC[C@@H]1NC[C@@H](O)[C@H](O)[C@H]1C(=O)O` [Inhibitor 3, C6-hexyl UIFG]?
ΔH (BdGUS): Essentially no enthalpy change was evident; IC50 [1]: 18.6 nM; cytotoxicity [2]: No cytotoxicity was evident; cytotoxicity [3]: No cytotoxicity was evident; health of the epithelial layer and intestinal glandular structure (hematoxylin and eosin staining) (BALB/c mice [4]): neither compound affected the health of the epithelial layer or the intestinal glandular structure; fluorescein fluorescence in the intestinal region (gut bacterial GUS activity) [5]: Reduced fluorescence; diarrhea (BALB/c mice [6]; CPT-11 30 mg per kg daily with inhibitor 3 5.8 µg orally twice per day): diarrhea was significantly suppressed; also recorded: significantly reduced diarrhea; diarrhea (BALB/c mice [6]; inhibitor 3 only, 5.8 µg given orally twice per day): neither the negative control nor inhibitor 3 caused diarrhea

With `CCC[C@@H]1NC[C@@H](O)[C@H](O)[C@H]1C(=O)O` [Inhibitor 2, C6-propyl UIFG] as the molecule, how does the “ΔΔH1–2 (enthalpy penalty of 2 relative to 1)” value (BdGUS; BdGUS in Tris buffer) read?
The value was “+8.5 kcal mol^−1”.

What about the “–TΔΔS1–2 (2 relative to 1)” value (BdGUS; BdGUS in Tris buffer) of the same molecule?
The value was -6.2 kcal/mol.

And the “entropy contribution to binding” value (BdGUS; BdGUS in Tris buffer, sign (positive = favourable))?
The value was “+4.6 kcal mol^−1”.

What about the Kd (BdGUS) of the same molecule?
The Kd was 14500 ± 3550 nM.

What about the ΔG (BdGUS) of the same molecule?
Its ΔG is “–6.60 ± 0.15 kcal/mol”.

What about the ΔH (BdGUS) of the same molecule?
Its ΔH is “–1.97 ± 0.15 kcal/mol”.

And the “—TΔS” value (BdGUS)?
The value was “–4.64 ± 0.30 kcal/mol”.

And the IC50 [1]?
The IC50 was 1200 nM.

What about the pKa [7] of the same molecule?
The pKa was 9.4.

With `CCCCCCCCC[C@@H]1NC[C@@H](O)[C@H](O)[C@H]1C(=O)O` [Inhibitor 4, C6-nonyl UIFG] as the molecule, how does the IC50 [1] read?
The IC50 was 3.69 nM.

Which results are given for `O=C(O)[C@H]1CNC[C@@H](O)[C@@H]1O` [Inhibitor 1, Uronic isofagomine]?
Kd (BdGUS): 300 ± 60 nM; ΔG (BdGUS): –8.91 ± 0.13 kcal/mol; ΔH (BdGUS): –10.47 kcal/mol; —TΔS (BdGUS): 1.56 ± 0.37 kcal/mol; pKa [7]: 8.0
